Data set [1] deals with MDA-MB-468 human triple-negative breast cancer cell line (HER2-negative). The data set is described as follows: Bystander effect experiment, MDA-MB-468 alone. Conditions: for viability at 0.001 µM: Homo sapiens, MDA-MB-468, 144 h, read-out: Cell viability (%) MDA-MB-468; for Cell viability (%) MDA-MB-468: single concentration of 1 nM, 144 hours, SRB. The procedure: (§1) The cell proliferation inhibitory activity of the drugs and ADC presented in Table 4 below on cancer cell lines was measured. The SK-BR3 human breast cancer cell line (procured from Korea Cell Line Bank (KCLB)) was used as a HER2-positive cell line, and the MDA-MB-468 human triple-negative breast cancer cell line (procured from ATCC) was used as a HER2-negative cell line. […] All ADCs used in the experiment were anti-HER2 ADCs. In a 96-well plate, 6,000 SK-BR3, 6,000 MDA-MB-468, or 3,000 SK-BR3 and 3,000 MDA-MB-468 per well were seeded together, cultured for 24 hours, and then treated with each drug and ADC at a single concentration of 1 nM. After 144 hours, the number of viable cells was quantified using SRB (Sulforhodamine B) dye.

In data set [2] the test system is Co-culture SK-BR3:MDA-MB-468 = 1:1. Nature of the data set: Bystander effect experiment, co-culture. Conditions: for viability at 0.001 µM: Homo sapiens, 144 h, read-out: Cell viability (%) Co-culture (SK-BR3:MDA-MB-468 = 1:1); for Cell viability (%) Co-culture (SK-BR3:MDA-MB-468 = 1:1): single concentration of 1 nM, 144 hours, SRB. The procedure: as §1
The subject of data set [3] is SK-BR3 human breast cancer cell line (HER2-positive). The data set is described as follows: Bystander effect experiment, SK-BR3 alone. Conditions: for viability at 0.001 µM: Homo sapiens, SK-BR-3, 144 h, read-out: Cell viability (%) SK-BR3; for Cell viability (%) SK-BR3: single concentration of 1 nM, 144 hours, SRB. As for the experimental part:
as §1

A short description of data set [4]: Rat pre-tox experiment (single dose toxicity). The following applies: single tail vein dose; for inhibition of weight gain: SG2057 statement for 0.02 mg/kg and 0.04 mg/kg groups. The format is in vivo, SD rats. As for the experimental part: Twenty one 8-week-old male SD rats were divided into 7 groups of 3 rats each, the test material was administered thereto through the tail vein at 2 mL/kg one time, and the weight/death/clinical symptoms and the like thereof were observed. The body weight was measured two times a week, and death and clinical symptoms were observed daily. Four weeks after administration, planned slaughter was performed to examine the gross findings of organs. The results are as illustrated in FIG. 3.

The subject of the next data set is JIMT-1 (HER2 positive). The data set is described as follows: In vitro cytotoxicity (cell proliferation inhibition, SRB), JIMT-1. Format: cell-based. The following applies: Homo sapiens. As for the experimental part: (§2) The cell proliferation inhibitory activity of the drugs and ADCs presented in Tables 2 and 3 below on cancer cell lines was measured. As the cancer cell lines, commercially available human breast cancer cell lines MCF-7 (HER2 negative to normal), SK-BR3 (HER2 positive), and JIMT-1 (HER2 positive) were used. […] In a 96-well plate, 5,000 SK-BR3, 5,000 MCF-7, and 2,500 JIMT-1 per well were seeded, cultured for 24 hours, and then treated with ADCs at a concentration of 25 fM to 10 nM (5-fold serial dilutions) and drugs at a concentration of 25 fM to 10 nM (5-fold serial dilutions) or 1 fM to 100 nM (10-fold serial dilutions).

A further data set relates to SK-BR3 (HER2 positive). Nature of the data set: In vitro cytotoxicity (cell proliferation inhibition, SRB), SK-BR3. Format: cell-based. The following applies: Homo sapiens. The procedure:
as §2

Data set [5] concerns MCF-7 (HER2 negative to normal). The data set is described as follows: In vitro cytotoxicity (cell proliferation inhibition, SRB), MCF-7. The following applies: Homo sapiens. Format: cell-based. As for the experimental part:
as §2

The test system of data set [6] is Co-culture SK-BR3:MDA-MB-468 = 1:1. Conditions: free toxin control materials; cited from earlier work.
The mark [7] stands for this setting: first of three dose groups (dose not given).
Where [8] appears, read: second of three dose groups (apparently 0.02 mg/kg).
The mark [9] stands for this setting: third of three dose groups (apparently 0.04 mg/kg).
The mark [10] stands for this setting: JIMT-1, 144 h, read-out: IC50 (nM) JIMT-1, pyrrolobenzodiazepine derivatives (free drugs), 144 hours, SRB.
The mark [11] stands for this setting: SK-BR-3, 144 h, read-out: IC50 (nM) SK-BR3, pyrrolobenzodiazepine derivatives (free drugs), 144 hours, SRB.
Where [12] appears, read: MCF7, 144 h, read-out: IC50 (nM) MCF7, pyrrolobenzodiazepine derivatives (free drugs), 144 hours, SRB.

SMILES strings stand for the structures. Read-outs that look alike come from different tables or passages of the source. Square brackets hold non-standard residues; d marks the D form. Peptide text beside a SMILES is read from it. * marks the point of attachment. Dolaproine = CO[C@@H]([C@@H]1CCCN1)[C@@H](C)C(=O)O; Dil = CC[C@H](C)[C@H](NC)[C@@H](CC(=O)O)OC; X1 = C[C@@H](N*)[C@@H](O)c1ccccc1; NMeV = CN[C@H](C(=O)O)C(C)C

As to `C=C1CC2CNc3cc(OCc4cc(COc5cc6c(cc5OC)C(=O)N5CC(=C)C[C@H]5CN6)cc(OCCOCCOCCOCC(=O)O)c4)c(OC)cc3C(=O)N2C1` (some centres unmarked) [Compound 32], the viability at 0.001 µM stood at 101% in data set [1], 98% in data set [2] and 98% in data set [3]. Further, the bystander effect result in data set [2] (conclusion from mono- and co-culture viability at 1 nM) is “do not exhibit a bystander effect”. The “body weight at end of 4th week as compared to body weight at time of administration” value turned out to be 171% in data set [4] (setting [7]), 164% in data set [4] (setting [8]) and 161% in data set [4] (setting [9]). Also, the “inhibition of weight gain” value in data set [4] was “very insignificant”. The half-maximal inhibitory concentration (IC50) in the data set on JIMT-1 (HER2 positive) (JIMT-1, pyrrolobenzodiazepine derivatives (free drugs), 144 hours, SRB, read-out: IC50 (nM) JIMT-1) was greater than 100 nM; in the data set with SK-BR3 (HER2 positive) (SK-BR-3, pyrrolobenzodiazepine derivatives (free drugs), 144 hours, SRB, read-out: IC50 (nM) SK-BR3) it was 18.2 nM; in data set [5] (MCF7, pyrrolobenzodiazepine derivatives (free drugs), 144 hours, SRB, read-out: IC50 (nM) MCF7), greater than 100 nM.

As for `C=C1C[C@H]2C=Nc3cc(OCc4cc(COc5cc6c(cc5OC)C(=O)N5CC(=C)C[C@H]5C=N6)cc(OCCOCCOCCOCC(=O)OC)c4)c(OC)cc3C(=O)N2C1` [Compound 33], the IC50 (in the data set on JIMT-1 (HER2 positive) (setting [10]); in the data set on SK-BR3 (HER2 positive) (setting [11]); in data set [5] (setting [12])) was greater than 100 nM each time.

As to `C=C1C[C@H]2C=Nc3cc(OCc4cc(COc5cc6c(cc5OC)C(=O)N5CC(=C)C[C@H]5C=N6)cc(OCCOCCOCCOCC(=O)NC(CC(=O)OC)CC(=O)OC)c4)c(OC)cc3C(=O)N2C1` [Compound 53], the IC50 with JIMT-1 (HER2 positive) (setting [10]) worked out at 8.93 nM; in the data set with SK-BR3 (HER2 positive) (setting [11]), 2.52 nM; in data set [5] (setting [12]) it was 11.8 nM.

For `CC[C@H](C)[C@@H]([C@@H](CC(=O)N1CCC[C@H]1[C@H](OC)[C@@H](C)C(=O)N[C@@H](Cc1ccccc1)C(=O)O)OC)N(C)C(=O)[C@@H](NC(=O)[C@@H](NC)C(C)C)C(C)C` [MMAF] (H-[NMeV]V[Dil][Dolaproine]F-OH), in data set [1], the “Cell viability (%) MDA-MB-468” value turned out to be 105%. Besides, the “Cell viability (%) Co-culture (SK-BR3:MDA-MB-468 = 1:1)” value in data set [2] was 99%. In addition, the “Cell viability (%) SK-BR3” value in data set [3] is reported as 101%. In data set [6], the “bystander effect (already known)” value is listed as “known to exhibit no bystander effect”.

In the case of `C=C1C[C@H]2C=Nc3cc(OCc4cc(COc5cc6c(cc5OC)C(=O)N5CC(=C)C[C@H]5C=N6)cc(OCCOCCOCCOCC(=O)NC(CC(=O)O)CC(=O)O)c4)c(OC)cc3C(=O)N2C1` [Compound 52], the IC50 (in the data set with JIMT-1 (HER2 positive) (setting [10]); with SK-BR3 (HER2 positive) (setting [11]); in data set [5] (setting [12])) was greater than 100 nM each time.

Consider `CC[C@H](C)[C@@H]([C@@H](CC(=O)N1CCC[C@H]1[C@H](OC)[C@@H](C)C(=O)N[C@H](C)[C@@H](O)c1ccccc1)OC)N(C)C(=O)[C@@H](NC(=O)[C@@H](NC)C(C)C)C(C)C` [MMAE] (H-[NMeV]V[Dil][Dolaproine]-X1), for which the “Cell viability (%) MDA-MB-468” value in data set [1] turned out to be 14%. Moreover, the “Cell viability (%) Co-culture (SK-BR3:MDA-MB-468 = 1:1)” value in data set [2] was determined as 12%. For the same molecule, the “Cell viability (%) SK-BR3” value in data set [3] was determined as 12%. For the same molecule, in data set [6], the “bystander effect (already known)” value is “known to exhibit a bystander effect”.

Take `C=C1C[C@H]2C=Nc3cc(OCCCCCOc4cc5c(cc4OC)C(=O)N4CC(=C)C[C@H]4C=N5)c(OC)cc3C(=O)N2C1` [SG2057]: the viability at 0.001 µM is 4% in data set [1], 6% in data set [2] and 7% in data set [3]. Further, the “body weight at end of 4th week as compared to body weight at time of administration” value in data set [4] (setting [7]) is listed as 167%; in data set [4] (setting [8]) it was 148%; in data set [4] (setting [9]), 115%. For the same molecule, in data set [4], the “inhibition of weight gain” value is given as “significantly inhibited weight gain”. The IC50 is 0.05 nM in the data set with JIMT-1 (HER2 positive) (JIMT-1, 144 h, read-out: IC50 (nM) JIMT-1, comparison of anti-HER2 ADCs, 144 hours, SRB); 0.04 nM with JIMT-1 (HER2 positive) (setting [10]); 0.02 nM in the data set on SK-BR3 (HER2 positive) (SK-BR-3, 144 h, read-out: IC50 (nM) SK-BR3, comparison of anti-HER2 ADCs, 144 hours, SRB); 0.01 nM in the data set on SK-BR3 (HER2 positive) (setting [11]); 0.06 nM in data set [5] (MCF7, 144 h, read-out: IC50 (nM) MCF7, comparison of anti-HER2 ADCs, 144 hours, SRB); 0.05 nM in data set [5] (setting [12]).

Usually viability stands for a read-out of living cells in per cent, often relative to untreated cells. In general, IC50 refers to the concentration needed to halve the response being measured.

(Values after US20220096641A1, “PYRROLOBENZODIAZEPINE DIMER COMPOUND WITH IMPROVED SAFETY AND USE THEREOF” (priority 2019, published 2022).)
